Measured values from US9682993B2, “Anticancer compounds” (ST. JUDE CHILDREN'S RESEARCH HOSPITAL, priority 2012, dated 2017).
Like-named read-outs stand apart in the source and are kept apart here.

Columns and labels:
[1] = system: cytotoxicity or splicing modulation; test: Rapid onset of cytotoxicity or splicing modulation; format: cell-based; conditions: maximum cytotoxicity or splicing modulation within 5 hours of drug treatment
Procedure: The cell were seeded in of 100 μl of medium into 96-well plates (HeLa at 4×10^4 cell/well; SK_MEL_2 at 6×10^4 cell/well), they were allowed to attach overnight, and then treatments started by adding 50 μl of medium containing Sudemycin D6 to produce a final concentration of 1 μM and DMSO to 0.5% v/v final into the experimental well. Continuous drug treatments were run in the same plate, using concentrations of 0, 62.5, 125, 250, 500 & 1000 nM final. DMSO was added into all wells, including non-treated wells to 0.5% v/v final concentration. For wells where the drug was withdrawn, the medium was carefully aspirated after 1, 2, 3 and 4 hours after the addition of the drug, the cells were washed once with PBS and then 150 μl of fresh cell culture medium containing 0.5% v/v DMSO was added into all washed out wells. After 72 hours of the addition of drug, the cell viability was determined using CellTiter-Glo luminescent cell viability assay (Promega, Madison, Wis.), and Sudemycin D6 cytotoxicity was calculated as the percentage of cell proliferation inhibition against the control treatment DMSO.

[2] = system: MDM2 alternative splicing in Rh18 cells; test: In vitro alternative splicing assay (MDM2, RT-PCR); format: cell-based; conditions: Rh18 cells, 8 h exposure; Table II
Procedure: Briefly, following an 8 h exposure of exponentially growing cells to drug, total RNA was isolated using TRIzol reagent (Invitrogen, Carlsbad, Calif.). Total RNA (1 μg) was used to convert the mRNA to cDNA by using random primers, Oligo(dT)16 and Omniscript Reverse Transcription Kit (Qiagen, Germantown, Md.). PCR analyses were performed using specific oligonucleotides (see Table I) and standard amplification protocols. PCR products were separated by agarose gel electrophoresis, visualized by ethidium bromide staining on an UV transilluminator, and recorded. PCR band sizes were calculated by comparing them to the standard EZ Load 100-bp PCR Molecular Ruler (BioRad Laboratories, Hercules, Calif.).

[3] = Mouse plasma stability (HPLC); format: in vitro ADME; conditions: mouse plasma at 37° C.
[4] = Solubility in phosphate buffered saline (HPLC); format: physicochemical; conditions: for solubility: aqueous buffer, read-out: Buffer Soluble
JeKo1 = test: In vitro cytotoxicity analysis, JeKo1; format: cell-based; conditions: Homo sapiens, JeKo-1
Source text: The A549 lung cancer, WiDr colorectal cancer, MCF-7 breast cancer, PC-3 prostate cancer, and OVCAR-3 ovarian cancer cell lines were purchased from the American Type Culture Collection (ATCC, Manassas, Va.) and were maintained in growth media as recommended by the ATCC. The JeKo-1 and JVM-2 mantle cell lymphoma cell lines were purchased from the DSMZ (Brunswick, Germany) and were maintained in growth media as recommended by the vendor. The pediatric rhabdomyosarcoma Rh18 cell line was provided y Dr. P. Houghton (Ohio State University—Nationwide Children's Hospital, Columbus, Ohio) and were maintained in growth media as recommended by Dr. Houghton. All cell culture media were supplemented with L-glutamine and penicillin/streptomycin. All cells were grown under standard culture conditions in CO2 incubators, at 37° C., with 5% CO2, and 100% relative humidity.
Cell viabilities were determined by measuring the cleavage of (sodium 3′-[1-(phenylaminocarbonyl)-3,4-tetrazolium]-bis(4-methoxy-6-nitro)benzene sulfonic acid hydrate) (XTT) to a water-soluble orange formazan by mitochondrial dehydrogenase, following the manufacturer's instructions (Roche Applied Science, Indianapolis, Ind.). Briefly, cell lines were seeded at various cell densities depending on the cell type. The adherent cell lines were allowed to adhere overnight before compound addition, whereas the suspension cell lines were seeded the day of compound addition. Stock concentrations of the compounds were made in DMSO, diluted in culture media and subsequently added to the plates at various final concentrations, then incubated for 72 hours. After the incubation period, the XTT labeling reagent, containing the electron-coupling reagent, was added to each well and incubated for 4 hours. The absorbance of each well was then read at 490 nm with a reference wavelength of 690 nm using a VersaMax™ microplate reader (Sunnyvale, Calif.). Data are expressed as the percentage of growth compared to vehicle-treated cells, as calculated from absorbance and corrected for background absorbance.
Alternatively, cell lines were seeded in 100 μL cell culture medium in 96-well plates. Depending on the cell proliferation rate, cells were seeded at 4,000 to 6,000 cells/well. Suspension cell cultures were initiated with 20,000 cells/well. The cells were incubated overnight at 37° C., and then the drug treatments were started by adding 50 μL medium containing the corresponding drug dilution and DMSO. The final concentration of DMSO onto the cells was 0.5% v/v in all wells. The cells viability was determined using the CellTiter-Glo Luminescent Cell Viability Assay (Promega, Madison, Wis.). The CellTiter-Glo reagent was prepared according to the manufacturer's instructions, and then 50 μL reagent was added to each well for 1 h at rt. The luminescence was measured on an Envision Multilabel Plate Reader (PerkinElmer, Waltham, Mass.). The IC50 values were calculated from the dose-response curve analysis with GraphPad Prism 6.01 (GraphPad Software, La Jolla, Calif.) using the nonlinear regression model 4 Parameter Logistic. Nine concentrations were generated by 1:2 serial dilutions for each IC50 assay. Each drug concentration was evaluated in triplicate or quadruplicate.

SK-MEL-2 = test: Drug combination assay, SK-MEL-2; format: cell-based; conditions: for CI in SK-MEL-2 with compound 19: Combination Index at ED50, CalcuSyn 2.1, listed drug + compound 19
Procedure: (§1) Preliminary cytotoxic screenings for each drug used in drug combination assays were performed to determine their cytotoxic dose range. […] Eight concentrations were established by 1:3 serial dilutions of the single drugs and their combinations with the splicing modulators. All drug concentrations were evaluated in triplicate in 96-well cell culture plates. Assays of individual drugs and drug combinations were run on the same tissue culture plate. Cell viability was determined using the CellTiter-Glo reagent.
(§2) Luminescence data obtained from the cell viability determinations were formatted per the requirements of the analytical software (viability data range: >0 and <1). The formatted data were analyzed with the software CalcuSyn 2.1 (Biosoft, Cambridge, UK), which provides quantitative CI values for the drug interaction analyses (see ranges in Supplementary Table S2).

cell lines investigated = test: Drug combination assays, cell line not stated; format: cell-based
Procedure: as §1, §2

Sk-N-AS = test: Drug combination assay, Sk-N-AS neuroblastoma; format: cell-based; conditions: neuroblastoma cell line SK-NA-S; CalcuSyn 2.1
Procedure: as §1, §2

[5] = listed drug combined with compound 19, Ineffective = drug IC50 much higher than 1 μM

## CC(=O)O[C@@H](C)/C=C\C(=O)N[C@H]1CC[C@@H](C/C=C(C)/C=C/[C@@H]2C[C@]3(CO3)CC(C)(C)O2)CC1
[1]
  Rapid Onset: Yes (“Yes” indicates maximum cytotoxicity or splicing modulation is seen within 5 hours of drug treatment.)
[2]
  MDM2 Splicing Effects: Yes
[3]
  Plasma Stability: No
[4]
  Buffer Soluble: No
JeKo1; Table II
  IC50: 100 nM

## CC(/C=C/[C@@H]1C[C@]2(CO2)CC(C)(C)O1)=C\C[C@H]1OC[C@@H](NC(=O)/C=C\[C@H](C)OC(=O)C(C)C)CO1
[1]
  Rapid Onset: No
[2]
  MDM2 Splicing Effects: Yes
[3]
  Plasma Stability: No
[4]
  solubility: > 10 µM
JeKo1; Table II
  IC50: 220 nM

## CC(/C=C/C1C[C@]2(CO2)CC(C)(C)O1)=C\C[C@H]1OC[C@@H](NC(=O)/C=C\[C@H](C)OC(=O)N(C)C)CO1 (stereo partly drawn)
[1]
  Rapid Onset: No
[2]
  MDM2 Splicing Effects: Yes
[3]
  Plasma Stability: Yes (“Yes” indicates mouse plasma stability is >5 hours in mouse plasma at 37 °C as determined by HPLC.)
[4]
  solubility: > 10 µM
JeKo1; Table II
  IC50: 300 nM

## CC(/C=C/[C@@H]1C[C@]2(CO2)CC(C)(C)O1)=C\C[C@H]1CC[C@@H](NC(=O)/C=C\[C@H](C)OC(=O)N(C)CCN(C)C)CC1
[4]
  solubility: > 10 µM
JeKo1; Table II
  IC50: 170 nM

## CC(/C=C/[C@@H]1C[C@]2(CO2)CC(C)(C)O1)=C\C[C@H]1CC[C@@H](NC(=O)/C=C\[C@H](C)OC(N)=O)CC1
JeKo1; Table II
  IC50: 100 nM

## CC(/C=C/[C@@H]1C[C@]2(CO2)CC(C)(C)O1)=C\C[C@H]1OC[C@@H](NC(=O)/C=C\[C@H](C)OC(=O)NC(C)(C)C)CO1
JeKo1; Table III
  IC50: > 1000 nM

## CCCN(C)C(=O)O[C@@H](C)/C=C\C(=O)N[C@H]1CO[C@@H](C/C=C(C)/C=C/[C@@H]2C[C@]3(CO3)CC(C)(C)O2)OC1
JeKo1; Table III
  IC50: 610 nM

## CCCCN(C)C(=O)O[C@@H](C)/C=C\C(=O)N[C@H]1CO[C@@H](C/C=C(C)/C=C/[C@@H]2C[C@]3(CO3)CC(C)(C)O2)OC1
JeKo1; Table III
  IC50: 690 nM

## CC(/C=C/[C@@H]1C[C@]2(CO2)CC(C)(C)O1)=C\C[C@H]1OC[C@@H](NC(=O)/C=C\[C@H](C)OC(=O)N(C)C(C)C)CO1
JeKo1; Table III
  IC50: 700 nM

## CC(/C=C/[C@@H]1C[C@]2(CO2)CC(C)(C)O1)=C\C[C@H]1OC[C@@H](NC(=O)/C=C\[C@H](C)OC(=O)N(C)C(C)(C)C)CO1
JeKo1; Table III
  IC50: 780 nM

## CC(/C=C/[C@@H]1C[C@]2(CO2)CC(C)(C)O1)=C\C[C@H]1OC[C@@H](NC(=O)/C=C\[C@H](C)OC(=O)N(C)C)CO1
JeKo1; Table III
  IC50: 300 nM

## O=c1[nH]cc(F)c(=O)[nH]1 [5-Fluorouracil]
SK-MEL-2; [5]
  Interaction Type: Ineffective^a

## Cn1c(=O)n(-c2ccc(C(C)(C)C#N)cc2)c2c3cc(-c4cnc5ccccc5c4)ccc3ncc21 [BEZ 235]
Cell lines investigated
  drug interaction with compound 19 (panel of 23 drugs): strongest synergy
SK-MEL-2
  CI in SK-MEL-2 with compound 19: 0.21
SK-MEL-2; [5]
  Interaction Type: Strong
Sk-N-AS
  drug interaction with compound 19: strong synergism
  drug interaction with compound 20: strong synergism

## C/C(=C\C(=O)Nc1ccccc1C(=O)O)c1ccc2ccccc2c1 [BIBR 1532]
SK-MEL-2
  Interaction Type: Ineffective

## CC(C)C[C@H](NC(=O)[C@H](Cc1ccccc1)NC(=O)c1cnccn1)B(O)O [Bortezomib]
SK-MEL-2; [5]
  Interaction Type: Antagonism (1.45-3.3)

## CC[C@@]1(O)C(=O)OCc2c1cc1n(c2=O)Cc2cc3ccccc3nc2-1 [Camptothecin]
SK-MEL-2
  CI in SK-MEL-2 with compound 19: 0.74
SK-MEL-2; [5]
  Interaction Type: Antagonism (1.45-3.3)

## COc1cccc2c1C(=O)c1c(O)c3c(c(O)c1C2=O)C[C@@](O)(C(=O)CO)C[C@@H]3O[C@H]1C[C@H](N)[C@H](O)[C@H](C)O1 [Doxorubicin]
SK-MEL-2; [5]
  Interaction Type: Ineffective

## COc1cc([C@@H]2c3cc4c(cc3[C@@H](O[C@@H]3O[C@@H]5CO[C@@H](C)O[C@H]5[C@H](O)[C@H]3O)[C@H]3COC(=O)[C@H]23)OCO4)cc(OC)c1O [Etoposide]
SK-MEL-2
  Interaction Type: Ineffective

## COC(=O)C[C@](O)(CCC(C)(C)O)C(=O)O[C@@H]1C(OC)=C[C@]23CCCN2CCc2cc4c(cc2[C@H]13)OCO4 [Harringtonine]
SK-MEL-2; [5]
  Interaction Type: Antagonism (1.45-3.3)

## NC(=O)NO [Hydroxyurea]
SK-MEL-2
  Interaction Type: Ineffective

## Cc1ccc(NC(=O)c2ccc(CN3CCN(C)CC3)cc2)cc1Nc1nccc(-c2cccnc2)n1 [Imatinib]
SK-MEL-2; [5]
  Interaction Type: Antagonism (1.45-3.3)

## O=C(O)c1nn(Cc2ccc(Cl)cc2Cl)c2ccccc12 [Lonidamine]
SK-MEL-2; [5]
  Interaction Type: Ineffective

## CO[C@@]12[C@H](COC(N)=O)C3=C(C(=O)C(C)=C(N)C3=O)N1C[C@@H]1N[C@@H]12 [Mitomycin C]
SK-MEL-2
  Interaction Type: Ineffective

## CCCCCCCCCCCCNC(=O)NC1CCCCC1 [NCND]
Cell lines investigated; single drug in combination assays
  cytotoxic effect of drug alone: Neither AUDA nor NCND alone produced a cytotoxic effect
SK-MEL-2; [5]
  Interaction Type: Slightly

## COc1ccc(C2=N[C@@H](c3ccc(Cl)cc3)[C@@H](c3ccc(Cl)cc3)N2C(=O)N2CCNC(=O)C2)c(OC(C)C)c1 [Nutlin-3]
SK-MEL-2; [5]
  Interaction Type: Ineffective

## Cc1ncc(C[n+]2csc(CCO)c2C)c(=O)[nH]1 [Oxythiamine]
SK-MEL-2; [5]
  Interaction Type: Ineffective

## Cc1[nH]c2ccccc2c1CCNCc1ccc(/C=C/C(=O)NO)cc1 [Panobinostat]
SK-MEL-2
  CI in SK-MEL-2 with compound 19: 0.76

## COc1ccc2c(c1)/C(=C/c1cnc[nH]1)C(=O)N2 [SU 9516]
SK-MEL-2
  CI in SK-MEL-2 with compound 19: 0.83
SK-MEL-2; [5]
  Interaction Type: Antagonism (1.45-3.3)

## COc1cc(C2Oc3cc([C@H]4Oc5cc(O)cc(O)c5C(=O)[C@@H]4O)ccc3OC2CO)ccc1O (stereo partly drawn) [Silibinin]
SK-MEL-2
  CI in SK-MEL-2 with compound 19: 0.89
SK-MEL-2; [5]
  Interaction Type: Moderate

## CNC(=O)c1cc(Oc2ccc(NC(=O)Nc3ccc(Cl)c(C(F)(F)F)c3)cc2)ccn1 [Sorafenib]
Cell lines investigated
  drug interaction with compound 19 (panel of 23 drugs): second strongest synergistic agent
SK-MEL-2
  CI in SK-MEL-2 with compound 19: 0.43
Sk-N-AS
  drug interaction with compound 19: predominantly synergistic

## CC(=O)O[C@H]1C(=O)[C@@]2(C)[C@H]([C@H](OC(=O)c3ccccc3)[C@]3(O)C[C@H](OC(=O)[C@H](O)[C@@H](NC(=O)c4ccccc4)c4ccccc4)C(C)=C1C3(C)C)[C@]1(OC(C)=O)CO[C@@H]1C[C@@H]2O [Taxol]
SK-MEL-2; [5]
  Interaction Type: Antagonism (1.45-3.3)
